Source: ChEMBL document CHEMBL3739257, “Aryl amide small-molecule inhibitors of microRNA miR-21 function” (Bioorg Med Chem Lett, 2015)
Active and inactive are the calls of the source. The calls are words filed in the database; no cut-off is given here.

Legend:
HeLa [1] = experiment: Inhibition of microRNA miR-21 expression in human HeLa cells assessed as reduction of intracellular miR-21 level by measuring luciferase signal relative to control; assay type: cell-based
Lampyridae = experiment: Inhibition of firefly luciferase at 10 uM preincubated for 1 hr followed by ATP addition measured after 3 mins by CellTiter-Glo assay
[2] = Inhibition of microRNA miR-21 expression in human HeLa cells assessed as luciferase signal at 10 uM after 48 hrs by microplate reader analysis; assay type: cell-based
HeLa [3] = experiment: Inhibition of miR-21 expression in human HeLa cells at 10 uM after 48 hrs by qRT-PCR analysis; assay type: functional
HeLa [4] = experiment: Inhibition of miR-125b expression in human HeLa cells at 10 uM after 48 hrs by qRT-PCR analysis; assay type: functional, cell-based
HeLa [5] = experiment: Inhibition of miR-17-5p expression in human HeLa cells at 10 uM after 48 hrs by qRT-PCR analysis; assay type: functional, cell-based
HeLa [6] = experiment: Inhibition of miR-222 expression in human HeLa cells at 10 uM after 48 hrs by qRT-PCR analysis; assay type: functional, cell-based
HeLa [7] = experiment: Inhibition of primary microRNA miR-21 expression in human HeLa cells assessed as luciferase signal at 10 uM by qRT-PCR analysis relative to control; assay type: cell-based
HeLa [8] = experiment: Inhibition of microRNA miR-21P transfected in human HeLa cells assessed as luciferase signal at 10 uM; assay type: cell-based
Huh-7 = experiment: Inhibition of microRNA miR-122 expression in human Huh7-psiCHECK cells assessed as luciferase expression at 10 uM after 48 hrs by microplate reader analysis; assay type: cell-based
HeLa [9] = experiment: Inhibition of microRNA miR-21 expression in human HeLa cells assessed as luciferase signal at 10 uM after 48 hrs by microplate reader analysis relative to control; assay type: cell-based

COc1ccc(C(=O)NCCc2ccccc2)cc1O
fold change (FC) (HeLa [1]): 0.95

COc1ccc(C(=O)NCCc2ccccn2)cc1
fold change (FC) (HeLa [1]): 1

COc1ccc(C(=O)NCCC2=CCCCC2)cc1O
fold change (FC) (HeLa [1]): 1.63

COc1ccc(C(=O)NCCCCc2ccccc2)cc1
fold change (FC) (HeLa [1]): 1.03

COc1ccc(C(=O)NCCC2=CCCCC2)cc1
fold change (FC) (HeLa [1]): 1.05

Nc1ccc(C(=O)NCCc2ccccc2)cc1
fold change (FC) (HeLa [1]): 1.46

CCOc1ccc(C(=O)NCCc2ccccc2)cc1
fold change (FC) (HeLa [1]): 1.56

COc1ccc(C(=O)Nc2ccccc2)cc1
fold change (FC) (HeLa [1]): 2.39
inhibition (Lampyridae): inactive
EC50 [2]: 2.3 µM
inhibition at 10 µM (HeLa [3]): 43%
inhibition (HeLa [4]): inactive
inhibition (HeLa [5]): inactive
inhibition (HeLa [6]): inactive
inhibition (HeLa [7]): inactive
inhibition (HeLa [8]): inactive

COc1ccc(C(=O)NCCC2=CCCCC2)cc1OC1CCN(C(C)C)CC1
fold change (FC) (HeLa [1]): 1.36

C=CCNC(=O)c1ccc(OC)cc1
fold change (FC) (HeLa [1]): 1.28

COc1ccc(C(=O)NCCc2ccc3ccccc3c2)cc1
fold change (FC) (HeLa [1]): 1.41

O=C(NCCC1=CCCCC1)c1cccc(O)c1
fold change (FC) (HeLa [1]): 1.61

COc1ccc(C(=O)NCCC2CCCCC2)cc1O
fold change (FC) (HeLa [1]): 1.93

COc1ccc(C(=O)NCCCc2ccccc2)cc1
fold change (FC) (HeLa [1]): 1.94

COc1ccc(C(=O)NCc2ccccc2)cc1
fold change (FC) (HeLa [1]): 1.43

COc1ccc(C(=O)NCCC2=CCCCC2)cc1OC
fold change (FC) (HeLa [1]): 2.01
inhibition (Lampyridae): inactive
inhibition (Huh-7): inactive
inhibition (HeLa [9]): > 100%
EC50 [2]: 10.8 µM
inhibition at 10 µM (HeLa [3]): 17%
inhibition (HeLa [4]): inactive
inhibition (HeLa [5]): inactive
inhibition (HeLa [6]): inactive
inhibition (HeLa [7]): inactive
inhibition (HeLa [8]): inactive

COc1ccc(C(=O)NCCC2=CCCCC2)cc1OC(C)=O
fold change (FC) (HeLa [1]): 1.83

O=C(NCCC1=CCCCC1)c1ccc(O)c(O)c1
fold change (FC) (HeLa [1]): 2.22
inhibition (Lampyridae): inactive
inhibition (Huh-7): inactive
inhibition (HeLa [9]): > 100%
EC50 [2]: 6.1 µM
inhibition at 10 µM (HeLa [3]): 42%
inhibition (HeLa [4]): inactive
inhibition (HeLa [5]): inactive
inhibition (HeLa [6]): inactive
inhibition (HeLa [7]): inactive
inhibition (HeLa [8]): inactive

O=C(Nc1ccccc1)c1ccccc1
fold change (FC) (HeLa [1]): 1.49

COc1ccc(C(=O)Nc2ccc3ccccc3c2)cc1
fold change (FC) (HeLa [1]): 1.21
inhibition (Huh-7): inactive
inhibition (HeLa [9]): > 100%

COc1ccc(C(=O)NCCc2ccccc2)cc1
fold change (FC) (HeLa [1]): 0.5

O=C(NCCC1=CCCCC1)c1ccc(O)cc1
fold change (FC) (HeLa [1]): 1.66

O=C(NCCc1ccccc1)c1ccc(Oc2ccccc2)cc1
fold change (FC) (HeLa [1]): 1.4

COc1ccc(C(N)=O)cc1
fold change (FC) (HeLa [1]): 1.11

CCCOc1ccc(C(=O)NCCc2ccccc2)cc1
fold change (FC) (HeLa [1]): 1.36

COc1ccc(NC(=O)c2ccc(OC)cc2)cc1
fold change (FC) (HeLa [1]): 2.88
inhibition (Lampyridae): inactive
inhibition (Huh-7): inactive
inhibition (HeLa [9]): > 100%
EC50 [2]: 0.86 µM
inhibition at 10 µM (HeLa [3]): 61%
inhibition (HeLa [4]): inactive
inhibition (HeLa [5]): inactive
inhibition (HeLa [6]): inactive
inhibition (HeLa [7]): inactive
inhibition (HeLa [8]): inactive

O=C(NCCC1=CCCCC1)c1ccccc1
fold change (FC) (HeLa [1]): 1.58

CCCNC(=O)c1ccc(OC)c(O)c1
fold change (FC) (HeLa [1]): 1.11
